We go through four compounds from patent US5616123A, “Delivery of solid drug compositions” (Delab, priority 1995, dated 1997).

Data set [1] can be described thus: plasma levels of BN 50730 after subcutaneous injection (FIGS. 13, 14). In kind it is in vivo, rabbits. On the procedure: These cylinders were injected subcutaneously into rabbits at a dosage of 2.0 mg/kg for a comparison study with BN 50730 mixed with propylene glycol. […] This 10 ng/ml is a sufficient concentration for a pharmacological effect.
For data set [2] the following is noted: cited from earlier work; for solubility: in words.

Consider `COc1ccc(NC(=S)N2CCc3c(sc4c3C(c3ccccc3Cl)=NCc3nnc(C)n3-4)C2)cc1` [BN 50730, 4,7,8,10-tetrahydro-1-methyl-6-(2-chlorphenyl)-9-(4-methoxyphenyl-thiocarbamoyl)-pyrrido-[4',3'-4,5]thieno[3,2-f]-1,2,4-triazolo[4,3-a]1,4-diazepine], for which the “sufficient concentration for a pharmacological effect” value in data set [1] (plasma concentration) is recorded as 10 ng/ml. The “effect in plasma (onset)” value in data set [1] (solid formulation, subcutaneous, rabbits, 2.0 mg/kg) is “immediate effect in plasma”. Besides, the solubility entry in data set [2] is given as “insoluble”.
Regarding `CCCCNc1ccc(C(=O)OCCN(C)C)cc1` [tetracaine], in data set [2], the solubility result is “soluble”.
As to Recombinant human insulin [RHI], the water solubility result in data set [2] is “water soluble”.
Turning to bovine pancreas insulin [BPI], the water solubility entry in data set [2] is recorded as “water insoluble”.
